Our source for the Emax values is patent publication US7160888B2, “[1,8]naphthyridin-2-ones and related compounds for the treatment of schizophrenia” (Warner Lambert Company LLC, priority 2003, dated 2007).

SMILES strings stand for the structures.

For one experiment, the target named is D2 receptor (Homo sapiens, UniProt P14416). As to the kind of experiment: [3H]Thymidine uptake assay for D2 intrinsic activity. Type of experiment: cell-based. To be noted: Table 1; test compound 1 μM; 1 μM Quinpirole = 100% intrinsic activity.
Chain of D2 receptor (P14416 whole entry): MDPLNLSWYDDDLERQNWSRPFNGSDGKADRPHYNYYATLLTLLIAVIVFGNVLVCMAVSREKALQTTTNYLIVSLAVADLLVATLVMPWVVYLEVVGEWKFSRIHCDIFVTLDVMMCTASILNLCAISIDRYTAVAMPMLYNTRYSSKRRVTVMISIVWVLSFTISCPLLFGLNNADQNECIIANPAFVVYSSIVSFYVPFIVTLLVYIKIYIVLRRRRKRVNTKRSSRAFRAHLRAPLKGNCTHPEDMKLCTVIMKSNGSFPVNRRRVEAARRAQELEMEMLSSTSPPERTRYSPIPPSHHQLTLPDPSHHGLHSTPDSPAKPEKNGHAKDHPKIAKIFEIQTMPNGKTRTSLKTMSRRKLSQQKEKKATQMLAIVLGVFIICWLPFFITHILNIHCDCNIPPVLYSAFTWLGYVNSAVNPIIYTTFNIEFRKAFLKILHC
As usually defined, the Emax is the maximal effect, on the per cent scale that the assay sets. `O=c1ccc2ccc(OCCCCN3CCN(c4cccc5c(F)cccc45)CC3)nc2[nH]1` [Example B51, 7-{4-[4-(5-Fluoro-naphthalen-1-yl)-piperazin-1-yl]-butoxy}-1H-[1,8]naphthyridin-2-one]: the maximal effect (Emax) at 1 µM was 36%.

Take `O=c1ccc2ccc(OCCCCN3CCN(c4ccc(F)c5ccccc45)CC3)nc2[nH]1` [Example B52, 7-{4-[4-(4-Fluoro-naphthalen-1-yl)-piperazin-1-yl]-butoxy}-1H-[1,8]naphthyridin-2-one]: the Emax at 1 µM turned out to be 17%.

Molecule `O=c1ccc2ccc(OCCCCN3CCN(c4c(F)ccc5ccccc45)CC3)nc2[nH]1` [Example B54, 7-{4-[4-(2-Fluoro-naphthalen-1-yl)-piperazin-1-yl]-butoxy}-1H-[1,8]naphthyridin-2-one] displayed an Emax at 1 µM of 15%.

Take `O=c1ccc2ccc(OCCCCN3CCN(c4cccc5ccc(Cl)cc45)CC3)nc2[nH]1` [Example B56, 7-{4-[4-(7-Chloro-naphthalen-1-yl)-piperazin-1-yl]-butoxy}-1H-[1,8]naphthyridin-2-one]: the Emax at 1 µM came out at 28%.

`O=c1ccc2ccc(OCCCCN3CCN(c4cccc5cc(Cl)ccc45)CC3)nc2[nH]1` [Example B57, 7-{4-[4-(6-Chloro-naphthalen-1-yl)-piperazin-1-yl]-butoxy}-1H-[1,8]naphthyridin-2-one] had an Emax at 1 µM of 21%.

The molecule `O=c1ccc2ccc(OCCCCN3CCN(c4cccc5c(Cl)cccc45)CC3)nc2[nH]1` [Example B58, 7-{4-[4-(5-Chloro-naphthalen-1-yl)-piperazin-1-yl]-butoxy}-1H-[1,8]naphthyridin-2-one] had an Emax at 1 µM of 42%.

On to `O=c1ccc2ccc(OCCCCN3CCN(c4cccc5cccc(Cl)c45)CC3)nc2[nH]1` [Example B59, 7-{4-[4-(8-Chloro-naphthalen-1-yl)-piperazin-1-yl]-butoxy}-1H-[1,8]naphthyridin-2-one], for which the maximal response (Emax) at 1 µM is 37%.

`COc1ccc2cccc(N3CCN(CCCCOc4ccc5ccc(=O)[nH]c5n4)CC3)c2c1` [Example B60, 7-{4-[4-(7-Methoxy-naphthalen-1-yl)-piperazin-1-yl]-butoxy}-1H-[1,8]naphthyridin-2-one] registered an Emax at 1 µM of 28%.

In turn, `COc1ccc2c(N3CCN(CCCCOc4ccc5ccc(=O)[nH]c5n4)CC3)cccc2c1` [Example B61, 7-{4-[4-(6-Methoxy-naphthalen-1-yl)-piperazin-1-yl]-butoxy}-1H-[1,8]naphthyridin-2-one] returned a maximal response (Emax) at 1 µM of 18%.

`CC(=O)c1ccc2cccc(N3CCN(CCCCOc4ccc5ccc(=O)[nH]c5n4)CC3)c2c1` [Example B62, 7-{4-[4-(7-Acetyl-naphthalen-1-yl)-piperazin-1-yl]-butoxy}-1H-[1,8]naphthyridin-2-one] came in with an Emax at 1 µM of 21%.

As to `CC(=O)c1ccc2c(N3CCN(CCCCOc4ccc5ccc(=O)[nH]c5n4)CC3)cccc2c1` [Example B63, 7-{4-[4-(6-Acetyl-naphthalen-1-yl)-piperazin-1-yl]-butoxy}-1H-[1,8]naphthyridin-2-one], the maximal response (Emax) at 1 µM turned out to be 18%.

`CC(=O)c1cccc2c(N3CCN(CCCCOc4ccc5ccc(=O)[nH]c5n4)CC3)cccc12` [Example B64, 7-{4-[4-(5-Acetyl-naphthalen-1-yl)-piperazin-1-yl]-butoxy}-1H-[1,8]naphthyridin-2-one] returned an Emax at 1 µM of 27%.

`CC(=O)c1ccc(N2CCN(CCCCOc3ccc4ccc(=O)[nH]c4n3)CC2)c2ccccc12` [Example B65, 7-{4-[4-(4-Acetyl-naphthalen-1-yl)-piperazin-1-yl]-butoxy}-1H-[1,8]naphthyridin-2-one] yielded a maximal effect (Emax) at 1 µM of 10%.

For the molecule `CC(=O)c1ccc2ccccc2c1N1CCN(CCCCOc2ccc3ccc(=O)[nH]c3n2)CC1` [Example B66, 7-{4-[4-(2-Acetyl-naphthalen-1-yl)-piperazin-1-yl]-butoxy}-1H-[1,8]naphthyridin-2-one], the Emax at 1 µM was 33%.

Molecule `N#Cc1ccc2cccc(N3CCN(CCCCOc4ccc5ccc(=O)[nH]c5n4)CC3)c2c1` [Example B67, 8-{4-[4-(7-Oxo-7,8-dihydro-[1,8]naphthyridin-2-yloxy)-butyl]-piperazin-1-yl}-naphthalene-2-carbonitrile] came in with an Emax at 1 µM of 39%.

On to `Cn1c(=O)ccc2ccc(OCCCCN3CCN(c4cccc5ccccc45)CC3)nc21` [Example B68, 1-Methyl-7-[4-(4-naphthalen-1-yl-piperazin-1-yl)-butoxy]-1H-[1,8]naphthyridin-2-one], for which the maximum response (Emax) at 1 µM amounted to 17%.

Consider `O=c1ccc2ccc(OCCCN3CCN(c4cccc(Cl)c4Cl)CC3)nc2[nH]1` [Example C1, 7-{3-[4-(2,3-Dichloro-phenyl)-piperazin-1-yl]-propoxy}-1H-[1,8]naphthyridin-2-one], for which the maximal effect (Emax) at 1 µM amounted to 43%.

In turn, `O=c1ccc2ccc(OCCCN3CCN(c4cccc5ccccc45)CC3)nc2[nH]1` [Example C2, 7-[3-(4-Naphthalen-1-yl-piperazin-1-yl)-propoxy]-1H-[1,8]naphthyridin-2-one] yielded a maximum response (Emax) at 1 µM of 24%.

`O=C1CCc2ccc(OCCCN3CCN(c4cccc5ccccc45)CC3)nc2N1` [Example C3, 7-[3-(4-Naphthalen-1-yl-piperazin-1-yl)-propoxy]-3,4-dihydro-1H-[1,8]naphthyridin-2-one] showed an Emax at 1 µM of 22%.

Take `O=c1ccc2ccc(OCCN3CCN(c4cccc(Cl)c4Cl)CC3)nc2[nH]1` [Example C4, 7-{2-[4-(2,3-Dichloro-phenyl)-piperazin-1-yl]-ethoxy}-1H-[1,8]naphthyridin-2-one]: the Emax at 1 µM amounted to 2%.

On to `CC(CCCN1CCN(c2cccc(Cl)c2Cl)CC1)Oc1ccc2c(n1)NC(=O)CC2` (centres unmarked) [Example C5, 7-{4-[4-(2,3-Dichloro-phenyl)-piperazin-1-yl]-1-methyl-butoxy}-3,4-dihydro-1H-[1,8]naphthyridin-2-one], for which the maximal effect (Emax) at 1 µM is 40%.

In turn, `CC(CCCN1CCN(c2cccc3ccccc23)CC1)Oc1ccc2c(n1)NC(=O)CC2` (centres unmarked) [Example C6, 7-[1-Methyl-4-(4-naphthalen-1-yl-piperazin-1-yl)-butoxy]-3,4-dihydro-1H-[1,8]naphthyridin-2-one] showed a maximal response (Emax) at 1 µM of 44%.

In the case of `CC(C)(CCCN1CCN(c2cccc(Cl)c2Cl)CC1)Oc1ccc2c(n1)NC(=O)CC2` [Example C7, 7-{4-[4-(2,3-Dichloro-phenyl)-piperazin-1-yl]-1,1-dimethyl-butoxy}-3,4-dihydro-1H-[1,8]naphthyridin-2-one], the Emax at 1 µM was determined as 46%.

`CC(C)(CCCN1CCN(c2cccc3ccccc23)CC1)Oc1ccc2c(n1)NC(=O)CC2` [Example C8, 7-[1,1-Dimethyl-4-(4-naphthalen-1-yl-piperazin-1-yl)-butoxy]-3,4-dihydro-1H-[1,8]naphthyridin-2-one] yielded a maximal effect (Emax) at 1 µM of 33%.

`Cc1cccc(N2CCN(CCCCCc3ccc4c(n3)NC(=O)CC4)CC2)c1Cl` [Example C10, 7-{5-[4-(2-Chloro-3-methyl-phenyl)-piperazin-1-yl]-pentyl}-3,4-dihydro-1H-[1,8]naphthyridin-2-one] came in with a maximal response (Emax) at 1 µM of 5%.

On to `O=C1CCc2ccc(CCCCCN3CCN(c4ccc(F)c(Cl)c4Cl)CC3)nc2N1` [Example C11, 7-{5-[4-(2,3-Dichloro-4-fluoro-phenyl)-piperazin-1-yl]-pentyl}-3,4-dihydro-1H-[1,8]naphthyridin-2-one], for which the Emax at 1 µM came out at 7%.

Turning to `O=C1CCc2ccc(CCCCCN3CCN(c4cccc5c4CCCC5)CC3)nc2N1` [Example C12, 7-{5-[4-(5,6,7.8-Tetrahydro-naphthalen-1-yl)-piperazin-1-yl]-pentyl}-3,4-dihydro-1H-[1,8]naphthyridin-2-one], the maximal response (Emax) at 1 µM amounted to 12%.

`O=C1CCc2ccc(CCCCCN3CCN(c4cccc5ccccc45)CC3)nc2N1` [Example C13, 7-[5-(4-Naphthalen-1-yl-piperazin-1-yl)-pentyl]-3,4-dihydro-1H-[1,8]naphthyridin-2-one] yielded a maximum response (Emax) at 1 µM of 14%.

As for `O=C1CCc2ccc(CCCCCN3CCN(c4ccc(F)cc4Cl)CC3)nc2N1` [Example C14, 7-{5-[4-(2-Chloro-4-fluoro-phenyl)-piperazin-1-yl]-pentyl}-3,4-dihydro-1H-[1,8]naphthyridin-2-one], the maximal response (Emax) at 1 µM was found to be 10%.

The same experiment, now with this note: Table 2; test compound 1 μM; 1 μM Quinpirole = 100% intrinsic activity.
As for `CC1(C)CC(=O)Nc2nc(OCCCCN3CCN(c4cccc5cccnc45)CC3)ccc21` [Example C1′, 4,4-Dimethyl-7-[4-(4-quinolin-8-yl-piperazin-1-yl)-butoxy]-3,4-dihydro-1H-[1,8]naphthyridin-2-one], the maximal effect (Emax) at 1 µM was 38%.

For `CC1(C)CC(=O)Nc2nc(OCCCCN3CCN(c4cccc5c4OCCO5)CC3)ccc21` [Example C2′, 7-{4-[4-(2,3-Dihydro-benzo[1,4]dioxin-5-yl)-piperazin-1-yl]-butoxy}-4,4-dimethyl-3,4-dihydro-1H-[1,8]naphthyridin-2-one], the Emax at 1 µM is 22%.

For the molecule `CC1(C)CC(=O)Nc2nc(OCCCCN3CCN(c4cccc5c4NC(=O)CC5)CC3)ccc21` [Example C3′, 4,4-Dimethyl-7-{4-[4-(2-oxo-1,2,3,4-tetrahydro-quinolin-8-yl)-piperazin-1-yl]-butoxy}-3,4-dihydro-1H-[1,8]naphthyridin-2-one], the Emax at 1 µM turned out to be 19%.

The molecule `CC1(C)CC(=O)Nc2nc(OCCCCN3CCN(c4cccc5ccc(=O)[nH]c45)CC3)ccc21` [Example C4′, 4,4-Dimethyl-7-{4-[4-(2-oxo-1,2-dihydro-quinolin-8-yl)-piperazin-1-yl]-butoxy}-3,4-dihydro-1H-[1,8]naphthyridin-2-one] yielded an Emax at 1 µM of 21%.

`CC1(C)CC(=O)Nc2nc(OCCCCN3CCN(c4cccc5ccoc45)CC3)ccc21` [Example C5′, 7-[4-(4-Benzofuran-7-yl-piperazin-1-yl)-butoxy]-4,4-dimethyl-3,4-dihydro-1H-[1,8]naphthyridin-2-one] yielded an Emax at 1 µM of 23%.

As for `CC1(C)CC(=O)Nc2nc(OCCCCN3CCN(c4cccc5c4OCCC5)CC3)ccc21` [Example C6′, 7-[4-(4-Chroman-8-yl-piperazin-1-yl)-butoxy]-4,4-dimethyl-3,4-dihydro-1H-[1,8]naphthyridin-2-one], the Emax at 1 µM amounted to 24%.
